Where two headings read alike, the source gives them in different places.
Assays:
[1] = molecular target: T1, mutant HIV reverse transcriptase, K103N mutation (Human immunodeficiency virus type 1 group M subtype B, UniProt P04585, K690N); test: Analogous RT inhibition assay, K103N mutant; format: biochemical
T1 construct: made in house
Experimental: (§1) 100 μL reaction mixtures were initiated with a combination of primer-template substrate (10 nM final concentration) and dNTPs (0.6 μM dNTPs, 0.75 μM [^3H]-dGTP). The heterodimeric nucleic acid substrate was generated by annealing the DNA primer pD500 (described in Shaw-Reid et al., J. Biol. Chem., 278: 2777-2780; obtained from Integrated DNA Technologies) to t500, a 500 nucleotide RNA template created by in vitro transcription (see Shaw-Reid et al., J. Biol. Chem., 278: 2777-2780). After 1 hour incubation at 37° C., reactions were quenched by 10 μL streptavidin scintillation proximity assay beads (10 mg/mL, from Amersham Biosciences) in 0.5 M EDTA, pH 8. Microtiter plates were incubated an additional 10 minutes at 37° C. prior to quantification via Topcount (Packard).
(§2) Analogous assays were conducted substituting mutant HIV strains to determine the […] inhibition of compounds of the present invention against mutant HIV reverse transcriptase. In one strain the reverse transcriptase has the Y181C mutation and in the other strain the reverse transcriptase has the K103N mutation. The mutations were generated with the […] site-directed mutagenesis kit (Stratagene).

[2] = test system: acute HIV infection of T-lymphoid cells; test: Assay for inhibition of HIV replication (spread assay); format: cell-based; conditions: Human immunodeficiency virus 1; inhibition of HIV replication in T-lymphoid cells
Experimental: An assay for the inhibition of acute HIV infection of T-lymphoid cells (alternatively referred to herein as the “spread assay”) was conducted in accordance with Vacca, J. P. et al., Proc. Natl. Acad. Sci. USA 1994, 91: 4096. […] The compounds of Examples 2-4 and 22 were not tested.

[3] = molecular target: T2, mutant HIV reverse transcriptase, Y181C mutation (Human immunodeficiency virus type 1 group M subtype B, UniProt P04585, Y768C); test: Analogous RT inhibition assay, Y181C mutant; format: biochemical
T2 construct: made in house
Experimental: as §1, §2

[4] = K103N mutant RT, tested up to 20 micromolar, read-out: IC50, K103N mutant assay
[5] = Y181C mutant RT, tested up to 20 micromolar, read-out: IC50, Y181C mutant assay

Row | Structure (SMILES) | IC50 [1] [nM] | IC95 [2] [nM] | IC50 [3] [nM] | IC50 [1, 4] [nM] | IC50 [3, 5] [nM]
1 | COCc1nc(-c2[nH]c3ccc(Cl)cc3c2S(=O)(=O)c2ccccc2)no1 [Example 1, 5-chloro-2-[5-(methoxymethyl)-1,2,4-oxadiazol-3-yl]-3-(phenylsulfonyl)-1H-indole] | > 20000 | < 1000 | > 20000 |  | 
2 | O=S(=O)(c1ccccc1)c1c(-c2nc(-c3ccccn3)cs2)[nH]c2ccc(Cl)cc12 [Example 3, 5-chloro-3-(phenylsulfonyl)-2-(4-pyridin-2-yl-1,3-thiazol-2-yl)-1H-indole] |  |  |  | > 20000 | > 20000
3 | O=S(=O)(c1ccccc1)c1c(-c2nc(-c3cccnc3)cs2)[nH]c2ccc(Cl)cc12 [Example 4, 5-chloro-3-(phenylsulfonyl)-2-(4-pyridin-3-yl-1,3-thiazol-2-yl)-1H-indole] |  |  |  | > 20000 | > 20000
4 | O=S(=O)(c1ccccc1)c1c(-c2noc(-c3ccccc3F)n2)[nH]c2ccc(Cl)cc12 [Example 7, 5-chloro-2-[5-(2-fluorophenyl)-1,2,4-oxadiazol-3-yl]-3-(phenylsulfonyl)-1H-indole] |  | < 1000 |  | > 20000 | > 20000
5 | O=S(=O)(c1ccccc1)c1c(-c2noc([C@@H]3C[C@H]3c3ccccc3)n2)[nH]c2ccc(Cl)cc12 [Example 8, 5-chloro-2-{5-[(1R,2R)-2-phenylcyclopropyl]-1,2,4-oxadiazol-3-yl}-3-(phenylsulfonyl)-1H-indole] |  | 2500 |  | > 20000 | > 20000
6 | O=S(=O)(c1ccccc1)c1c(-c2noc(COc3ccccc3)n2)[nH]c2ccc(Cl)cc12 [Example 9, 5-chloro-2-[5-(phenoxymethyl)-1,2,4-oxadiazol-3-yl]-3-(phenylsulfonyl)-1H-indole] |  | < 1000 |  | > 20000 | > 20000
7 | O=S(=O)(c1ccccc1)c1c(-c2noc(-c3ccncc3)n2)[nH]c2ccc(Cl)cc12 [Example 10, 5-chloro-3-(phenylsulfonyl)-2-(5-pyridin-4-yl-1,2,4-oxadiazol-3-yl)-1H-indole] |  | < 1000 | 1000 to 20000 | > 20000 | 
8 | O=S(=O)(c1ccccc1)c1c(-c2noc(-c3ccc(F)cc3F)n2)[nH]c2ccc(Cl)cc12 [Example 11, 5-chloro-2-[5-(2,4-difluorophenyl)-1,2,4-oxadiazol-3-yl]-3-(phenylsulfonyl)-1H-indole] |  | < 1000 |  | > 20000 | > 20000
9 | Cc1nc(-c2[nH]c3ccc(Cl)cc3c2S(=O)(=O)c2ccccc2)no1 [Example 12, 5-chloro-2-(5-methyl-1,2,4-oxadiazol-3-yl)-3-(phenylsulfonyl)-1H-indole] |  | < 1000 |  | > 20000 | > 20000
10 | O=S(=O)(c1ccccc1)c1c(-c2noc(C3CCC3)n2)[nH]c2ccc(Cl)cc12 [Example 13, 5-chloro-2-(5-cyclobutyl-1,2,4-oxadiazol-3-yl)-3-(phenylsulfonyl)-1H-indole] |  | < 1000 |  | > 20000 | > 20000
11 | O=S(=O)(c1ccccc1)c1c(-c2noc(Cc3ccccc3)n2)[nH]c2ccc(Cl)cc12 [Example 14, 2-(5-benzyl-1,2,4-oxadiazol-3-yl)-5-chloro-3-(phenylsulfonyl)-1H-indole] |  | < 1000 |  | > 20000 | > 20000
12 | CCc1nc(-c2[nH]c3ccc(Cl)cc3c2S(=O)(=O)c2ccccc2)no1 [Example 15, 5-chloro-2-(5-ethyl-1,2,4-oxadiazol-3-yl)-3-(phenylsulfonyl)-1H-indole] |  | < 1000 |  | > 20000 | > 20000
13 | Cc1cnc(-c2[nH]c3ccc(Br)cc3c2S(=O)(=O)N2CCCC2)[nH]1 [Example 16, 5-Bromo-2-(4-methyl-1H-imidazol-2-yl)-3-(pyrrolidin-1-ylsulfonyl)-1H-indole] |  | < 1000 | < 1000 | < 1000 | 
14 | O=S(=O)(c1c(-c2nc3ccccc3[nH]2)[nH]c2ccc(Br)cc12)N1CCCC1 [Example 17, 2-[5-bromo-3-(pyrrolidin-1-ylsulfonyl)-1H-indol-2-yl]-1H-benzimidazole] |  | < 1000 | < 1000 | < 1000 | 
15 | O=S(=O)(c1c(-c2nc([C@H](O)[C@@H](O)[C@@H](O)CO)c[nH]2)[nH]c2ccc(Br)cc12)N1CCCC1 [Example 18, (1S,2R,3S)-1-{2-[5-bromo-3-(pyrrolidin-1-ylsulfonyl)-1H-indol-2-yl}-1H-imidazol-4-yl}butane-1,2,3,4-tetrol] |  | < 1000 | 1000 to 20000 | < 1000 | 
16 | O=S(=O)(c1c(-c2nc(-c3ccc(N4CCOCC4)cc3)c[nH]2)[nH]c2ccc(Br)cc12)N1CCCC1 [Example 19, 5-bromo-2-[4-(4-morpholin-4-ylphenyl)-1H-imidazol-2-yl]-3-(pyrrolidin-1-ylsulfonyl)-1H-indole] |  | < 1000 | > 20000 | < 1000 | 
17 | CCC(OC)c1cnc(-c2[nH]c3ccc(Br)cc3c2S(=O)(=O)N2CCCC2)[nH]1 (stereo not drawn) [Example 21, 5-bromo-2-[4-(1-methoxypropyl)-1H-imidazol-2-yl]-3-(pyrrolidin-1-ylsulfonyl)-1H-indole] |  | < 1000 | 1000 to 20000 | < 1000 | 
18 | O=S(=O)(c1c(-c2nc(-c3ccc(F)cc3F)c[nH]2)[nH]c2ccc(Br)cc12)N1CCCC1 [Example 22, 5-bromo-2-[4-(2,4-difluorophenyl)-1H-imidazol-2-yl]-3-(pyrrolidin-1-ylsulfonyl)-1H-indole] |  |  |  | < 1000 | > 20000
19 | O=S(=O)(c1c(-c2ncc(-c3ccccc3)[nH]2)[nH]c2ccc(Br)cc12)N1CCCC1 [Example 23, 5-bromo-2-(4-phenyl-1H-imidazol-2-yl)-3-(pyrrolidin-1-ylsulfonyl)-1H-indole] |  | < 1000 |  | < 1000 | > 20000
20 | O=S(=O)(c1c(-c2nc(-c3ccc(Cl)cc3)c[nH]2)[nH]c2ccc(Br)cc12)N1CCCC1 [Example 24, 5-bromo-2-[4-(4-chlorophenyl)-1H-imidazol-2-yl]-3-(pyrrolidin-1-ylsulfonyl)-1H-indole] |  | < 1000 |  | < 1000 | > 20000
21 | O=S(=O)(c1c(-c2nc(-c3ccc(F)cc3)c[nH]2)[nH]c2ccc(Br)cc12)N1CCCC1 [Example 25, 5-bromo-2-[4-(4-fluorophenyl)-1H-imidazol-2-yl]-3-(pyrrolidin-1-ylsulfonyl)-1H-indole] |  | < 1000 |  | < 1000 | > 20000
22 | O=S(=O)(c1c(-c2nc(-c3ccc(F)c(F)c3)c[nH]2)[nH]c2ccc(Br)cc12)N1CCCC1 [Example 26, 5-bromo-2-[4-(3,4-difluorophenyl)-1H-imidazol-2-yl]-3-(pyrrolidin-1-ylsulfonyl)-1H-indole] |  | < 1000 |  | < 1000 | > 20000
23 | O=S(=O)(c1c(-c2nc(-c3ccc(O)cc3)c[nH]2)[nH]c2ccc(Br)cc12)N1CCCC1 [Example 27, 4-{2-[5-bromo-3-(pyrrolidin-1-ylsulfonyl)-1H-indol-2-yl]-1H-imidazol-4-yl}phenol] |  | < 1000 |  | < 1000 | 1000 to 20000
24 | COc1ccc(-c2c[nH]c(-c3[nH]c4ccc(Br)cc4c3S(=O)(=O)N3CCCC3)n2)cc1 [Example 28, 5-bromo-2-[4-(4-methoxyphenyl)-1H-imidazol-2-yl]-3-(pyrrolidin-1-ylsulfonyl)-1H-indole] |  | < 1000 |  | < 1000 | 1000 to 20000
25 | O=S(=O)(c1c(-c2nc(-c3ccc4c(c3)OCO4)c[nH]2)[nH]c2ccc(Br)cc12)N1CCCC1 [Example 30, 2-[4-(1,3-benzodioxol-5-yl)-1H-imidazol-2-yl]-5-bromo-3-(pyrrolidin-1-ylsulfonyl)-1H-indole] |  | < 1000 |  | < 1000 | 1000 to 20000
26 | COC(=O)c1cc(-c2c[nH]c(-c3[nH]c4ccc(Br)cc4c3S(=O)(=O)N3CCCC3)n2)ccc1O [Example 31, methyl 5-{2-[5-bromo-3-(pyrrolidin-1-ylsulfonyl)-1H-indol-2-yl]-1H-imidazol-4-yl}-2-hydroxybenzoate] |  | < 1000 | > 20000 | < 1000 | 
27 | O=[N+]([O-])c1ccc(-c2c[nH]c(-c3[nH]c4ccc(Br)cc4c3S(=O)(=O)N3CCCC3)n2)cc1 [Example 32, 5-bromo-2-[4-(4-nitrophenyl)-1H-imidazol-2-yl]-3-(pyrrolidin-1-ylsulfonyl)-1H-indole] |  | < 1000 | 1000 to 20000 | < 1000 | 
28 | N#Cc1ccc(-c2c[nH]c(-c3[nH]c4ccc(Br)cc4c3S(=O)(=O)N3CCCC3)n2)cc1 [Example 33, 4-{2-[5-bromo-3-(pyrrolidin-1-ylsulfonyl)-1H-indol-2-yl]-1H-imidazol-4-yl}benzonitrile] |  | < 1000 | > 20000 | < 1000 | 

— patent publication US20100168097A1, “Non-Nucleoside Reverse Transcriptase Inhibitors” (priority 2005, published 2010)
